Reference: patent US12653194B2, “Compositions and methods for promoting soil microbials for plant health and stress tolerance” (The United States of America, as represented by The …, priority 2021, dated 2026)

Tested on: soil microbials (fungi and bacteria)
Experiment: Peach orchard field trial: soil fungal and bacterial abundance (16S rRNA / ITS sequencing, PCA)
Type: in vivo
Settings: applied in 110 mL water within 15 cm of tree trunk plus 190 mL water, extract 34 HCE about 16x diluted (0.0625xHCE), 300,000 IJs per tree
Excerpt: The pheromone can be extracted with alcohol in a concentration range from about 0% to about 95%. The liquid (supernatant) may be removed and concentrated to produce a dry extract by using a stream of nitrogen, by rotary evaporation, by lyophilization, or by any equivalent means. The dry powder may be resuspended in water and centrifuged to separate insoluble debris from water-soluble pheromones. For storage the supernatant may be concentrated to dryness using a lyophilizer, a spray drier, or any equivalent means. The concentration and ratio of the pheromone mixture was evaluated for its activity on plants. […] In addition, for example, one insect host cadaver extract from Galleria mellonella (average weight of G. mellonella larvae, wax worm, is estimated to be approximately 232+/−57 mg) is diluted in 200 μL water which is physiologically relevant concentration as 1×HCE. When one insect host cadaver extract from Galleria mellonella is resuspended in 3200 μL (about 16 times dilution or 0.0625×HCE). Total 34 HCE S. carpocapsae pheromone extracts with 300,000 S. carpocapsae IJs in 110 mL of water in 15 cm soil surrounding the tree trunk. Then an additional 190 mL of water was added to the 15 cm of soil surrounding the tree trunk. […]

Q: For CCOP(=S)(OCC)Oc1nc(Cl)c(Cl)cc1Cl [Chlorpyrifos], which “time for which soil microbials were promoted / soil microbial abundance increased” value is on record?
A: Its value is at most 2 weeks.
